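A five-concentration, 48-hour dose response in 96-well plates underlies each endpoint, interpolated linearly between surrounding concentrations. GI50 is the concentration that inhibits growth by half. TGI denotes the concentration required for complete inhibition of growth.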
How the values were obtained:
Test in all cases: NCI-60 cell line screen, 48 h
RPMI-8226 leukemia = tested on: RPMI-8226 leukemia
SK-MEL-5 melanoma = tested on: SK-MEL-5 melanoma
MALME-3M melanoma = tested on: MALME-3M melanoma
CCRF-CEM leukemia = tested on: CCRF-CEM leukemia
SW-620 colon = tested on: SW-620 colon
OVCAR-5 ovarian = tested on: OVCAR-5 ovarian
SNB-19 CNS = tested on: SNB-19 CNS
NCI-H226 lung = tested on: NCI-H226 lung
SF-539 CNS = tested on: SF-539 CNS
PC-3 prostate = tested on: PC-3 prostate
A549 NSCLC = tested on: A549 NSCLC
OVCAR-8 ovarian = tested on: OVCAR-8 ovarian
NCI-H460 lung = tested on: NCI-H460 lung
T-47D breast = tested on: T-47D breast
U251 CNS = tested on: U251 CNS
UACC-62 melanoma = tested on: UACC-62 melanoma
KM12 colon = tested on: KM12 colon
HCT-15 colon = tested on: HCT-15 colon
IGROV1 ovarian = tested on: IGROV1 ovarian
OVCAR-3 ovarian = tested on: OVCAR-3 ovarian
LOX IMVI melanoma = tested on: LOX IMVI melanoma
HOP-92 NSCLC = tested on: HOP-92 NSCLC
HOP-62 NSCLC = tested on: HOP-62 NSCLC
M14 melanoma = tested on: M14 melanoma
SF-295 CNS = tested on: SF-295 CNS
MDA-MB-435 = tested on: MDA-MB-435
786-0 renal = tested on: 786-0 renal
UO-31 renal = tested on: UO-31 renal
UACC-257 melanoma = tested on: UACC-257 melanoma
COLO 205 colon = tested on: COLO 205 colon
A498 renal = tested on: A498 renal
HCC-2998 colon = tested on: HCC-2998 colon
ACHN renal = tested on: ACHN renal
K-562 leukemia = tested on: K-562 leukemia
MDA-MB-231 breast = tested on: MDA-MB-231 breast
NCI/ADR-RES ovarian = tested on: NCI/ADR-RES ovarian
SNB-75 CNS = tested on: SNB-75 CNS
NCI-H522 lung = tested on: NCI-H522 lung
HS 578T breast = tested on: HS 578T breast
SR leukemia = tested on: SR leukemia
SF-268 CNS = tested on: SF-268 CNS
TK-10 renal = tested on: TK-10 renal
SK-MEL-28 melanoma = tested on: SK-MEL-28 melanoma
DU-145 prostate = tested on: DU-145 prostate
CAKI-1 renal = tested on: CAKI-1 renal
OVCAR-4 ovarian = tested on: OVCAR-4 ovarian
MCF7 breast = tested on: MCF7 breast
HCT-116 colon = tested on: HCT-116 colon
SK-OV-3 ovarian = tested on: SK-OV-3 ovarian
BT-549 breast = tested on: BT-549 breast
SN12C renal = tested on: SN12C renal
NCI-H23 lung = tested on: NCI-H23 lung
MOLT-4 leukemia = tested on: MOLT-4 leukemia
RXF 393 renal = tested on: RXF 393 renal
HL-60(TB) leukemia = tested on: HL-60(TB) leukemia
EKVX NSCLC = tested on: EKVX NSCLC
HT29 colon = tested on: HT29 colon
SK-MEL-2 melanoma = tested on: SK-MEL-2 melanoma
MDA-N = tested on: MDA-N

With `O=C(Nc1cccc(NS(=O)(=O)c2ccc(F)cc2)c1)c1ccc(-c2ccccc2)cc1` the GI50 (RPMI-8226 leukemia) was 2.31 µM, the TGI (RPMI-8226 leukemia) was 11.4 µM and the GI50 (SK-MEL-5 melanoma) was 1.88 µM. The TGI (SK-MEL-5 melanoma) was 3.74 µM, the GI50 (MALME-3M melanoma) was 2.81 µM and the TGI (MALME-3M melanoma) was 10.2 µM. For the same molecule, the GI50 (CCRF-CEM leukemia) was 3.46 µM, the TGI (CCRF-CEM leukemia) was greater than 100 µM and the GI50 (SW-620 colon) was 4.04 µM. For the same molecule, the TGI (SW-620 colon) was 35.4 µM, the GI50 (OVCAR-5 ovarian) was 7.84 µM and the TGI (OVCAR-5 ovarian) was 75.8 µM. The GI50 (SNB-19 CNS) was 3.4 µM, the TGI (SNB-19 CNS) was greater than 100 µM and the GI50 (NCI-H226 lung) was 3.22 µM. The TGI (NCI-H226 lung) was 24.3 µM, the GI50 (SF-539 CNS) was 3.42 µM and the TGI (SF-539 CNS) was 12.8 µM. For the same molecule, the GI50 (PC-3 prostate) was 2.81 µM, the TGI (PC-3 prostate) was 32.6 µM and the GI50 (A549 NSCLC) was 3.34 µM. The TGI (A549 NSCLC) was greater than 100 µM, the GI50 (OVCAR-8 ovarian) was 2.88 µM and the TGI (OVCAR-8 ovarian) was 17.5 µM. It also gave a GI50 (NCI-H460 lung) of 3.42 µM, a TGI (NCI-H460 lung) of 14.7 µM and a GI50 (T-47D breast) of 2.28 µM. The TGI (T-47D breast) was 7.88 µM, the GI50 (U251 CNS) was 3.92 µM and the TGI (U251 CNS) was 19.2 µM. It also gave a GI50 (UACC-62 melanoma) of 1.63 µM, a TGI (UACC-62 melanoma) of 6.68 µM and a GI50 (KM12 colon) of 3.46 µM. It also gave a TGI (KM12 colon) of 15.6 µM, a GI50 (HCT-15 colon) of 2.86 µM and a TGI (HCT-15 colon) of 18.3 µM. For the same molecule, the GI50 (IGROV1 ovarian) was 4.38 µM, the TGI (IGROV1 ovarian) was 64.9 µM and the GI50 (OVCAR-3 ovarian) was 2.99 µM. The TGI (OVCAR-3 ovarian) was 15.3 µM, the GI50 (LOX IMVI melanoma) was 2.54 µM and the TGI (LOX IMVI melanoma) was 6.99 µM. For the same molecule, the GI50 (HOP-92 NSCLC) was 1.93 µM, the TGI (HOP-92 NSCLC) was 8.22 µM and the GI50 (HOP-62 NSCLC) was 4.66 µM. For the same molecule, the TGI (HOP-62 NSCLC) was 37.2 µM, the GI50 (M14 melanoma) was 3.63 µM and the TGI (M14 melanoma) was 17.1 µM. It also gave a GI50 (SF-295 CNS) of 2.34 µM, a TGI (SF-295 CNS) of 11.8 µM and a GI50 (MDA-MB-435) of 3.26 µM. It also gave a TGI (MDA-MB-435) of 13.7 µM, a GI50 (786-0 renal) of 3.69 µM and a TGI (786-0 renal) greater than 100 µM. For the same molecule, the GI50 (UO-31 renal) was 2.56 µM, the TGI (UO-31 renal) was 16.9 µM and the GI50 (UACC-257 melanoma) was 2.76 µM. It also gave a TGI (UACC-257 melanoma) of 9.93 µM, a GI50 (COLO 205 colon) of 3.23 µM and a TGI (COLO 205 colon) of 11.4 µM. The GI50 (A498 renal) was 4.69 µM, the TGI (A498 renal) was 25.9 µM and the GI50 (HCC-2998 colon) was 3.48 µM. The TGI (HCC-2998 colon) was 24.4 µM, the GI50 (ACHN renal) was 3.65 µM and the TGI (ACHN renal) was 42.7 µM. The GI50 (K-562 leukemia) was 2.91 µM, the TGI (K-562 leukemia) was 24.7 µM and the GI50 (MDA-MB-231 breast) was 3.61 µM. It also gave a TGI (MDA-MB-231 breast) of 18 µM, a GI50 (NCI/ADR-RES ovarian) of 2.75 µM and a TGI (NCI/ADR-RES ovarian) of 11.3 µM. For the same molecule, the GI50 (SNB-75 CNS) was 6.07 µM, the TGI (SNB-75 CNS) was 44 µM and the GI50 (NCI-H522 lung) was 2.5 µM. It also gave a TGI (NCI-H522 lung) of 13 µM, a GI50 (HS 578T breast) of 4.68 µM and a TGI (HS 578T breast) of 52.5 µM. It also gave a GI50 (SR leukemia) of 2.51 µM, a TGI (SR leukemia) of 10.1 µM and a GI50 (SF-268 CNS) of 3.22 µM. For the same molecule, the TGI (SF-268 CNS) was 66.6 µM, the GI50 (TK-10 renal) was 3.77 µM and the TGI (TK-10 renal) was 36.5 µM. The GI50 (SK-MEL-28 melanoma) was 3.54 µM, the TGI (SK-MEL-28 melanoma) was 16.9 µM and the GI50 (DU-145 prostate) was 3.96 µM. For the same molecule, the TGI (DU-145 prostate) was greater than 100 µM, the GI50 (CAKI-1 renal) was 3.74 µM and the TGI (CAKI-1 renal) was greater than 100 µM. The GI50 (OVCAR-4 ovarian) was 3.72 µM, the TGI (OVCAR-4 ovarian) was greater than 100 µM and the GI50 (MCF7 breast) was 2.71 µM. The TGI (MCF7 breast) was 11.2 µM, the GI50 (HCT-116 colon) was 3.48 µM and the TGI (HCT-116 colon) was 13.4 µM. The GI50 (SK-OV-3 ovarian) was 4.78 µM, the TGI (SK-OV-3 ovarian) was 38.5 µM and the GI50 (BT-549 breast) was 2.99 µM. It also gave a TGI (BT-549 breast) of 8.27 µM, a GI50 (SN12C renal) of 2.96 µM and a TGI (SN12C renal) of 11.8 µM. For the same molecule, the GI50 (NCI-H23 lung) was 2.83 µM, the TGI (NCI-H23 lung) was 10.5 µM and the GI50 (MOLT-4 leukemia) was 3.05 µM. For the same molecule, the TGI (MOLT-4 leukemia) was 14.5 µM, the GI50 (RXF 393 renal) was 3.65 µM and the TGI (RXF 393 renal) was 20.7 µM. For the same molecule, the GI50 (HL-60(TB) leukemia) was 3.37 µM, the TGI (HL-60(TB) leukemia) was 12.9 µM and the GI50 (EKVX NSCLC) was 2.98 µM. For the same molecule, the TGI (EKVX NSCLC) was 65.3 µM, the GI50 (HT29 colon) was 4.85 µM and the TGI (HT29 colon) was 18.6 µM. It also gave a GI50 (SK-MEL-2 melanoma) of 2.42 µM and a TGI (SK-MEL-2 melanoma) of 7.88 µM.

Molecule `COc1cccc(N2C(=O)CSC2c2c[nH]c3ccccc23)c1` (stereo not drawn) has a TGI (SK-MEL-5 melanoma) greater than 100 µM, a TGI (CCRF-CEM leukemia) greater than 100 µM and a TGI (SW-620 colon) greater than 100 µM. It also gave a TGI (OVCAR-5 ovarian) greater than 100 µM, a TGI (SNB-19 CNS) greater than 100 µM and a TGI (PC-3 prostate) greater than 100 µM. It also gave a TGI (OVCAR-8 ovarian) greater than 100 µM, a TGI (NCI-H460 lung) greater than 100 µM and a TGI (T-47D breast) greater than 100 µM. The TGI (U251 CNS) was greater than 100 µM, the TGI (UACC-62 melanoma) was greater than 100 µM and the TGI (KM12 colon) was greater than 100 µM. For the same molecule, the TGI (HCT-15 colon) was greater than 100 µM, the TGI (IGROV1 ovarian) was greater than 100 µM and the TGI (OVCAR-3 ovarian) was greater than 100 µM. It also gave a TGI (LOX IMVI melanoma) greater than 100 µM, a TGI (HOP-92 NSCLC) greater than 100 µM and a TGI (HOP-62 NSCLC) greater than 100 µM. It also gave a TGI (M14 melanoma) greater than 100 µM, a TGI (SF-295 CNS) greater than 100 µM and a TGI (MDA-MB-435) greater than 100 µM. For the same molecule, the TGI (UO-31 renal) was greater than 100 µM, the TGI (UACC-257 melanoma) was greater than 100 µM and the TGI (COLO 205 colon) was greater than 100 µM. The TGI (HCC-2998 colon) was greater than 100 µM, the TGI (K-562 leukemia) was greater than 100 µM and the TGI (MDA-MB-231 breast) was greater than 100 µM. It also gave a TGI (MDA-N) greater than 100 µM, a TGI (SNB-75 CNS) greater than 100 µM and a TGI (NCI-H522 lung) greater than 100 µM. The TGI (SR leukemia) was greater than 100 µM, the TGI (SF-268 CNS) was greater than 100 µM and the TGI (TK-10 renal) was greater than 100 µM. The TGI (SK-MEL-28 melanoma) was greater than 100 µM, the TGI (DU-145 prostate) was greater than 100 µM and the TGI (OVCAR-4 ovarian) was greater than 100 µM. The TGI (MCF7 breast) was greater than 100 µM, the TGI (HCT-116 colon) was greater than 100 µM and the TGI (SK-OV-3 ovarian) was greater than 100 µM. For the same molecule, the TGI (BT-549 breast) was greater than 100 µM, the TGI (SN12C renal) was greater than 100 µM and the TGI (NCI-H23 lung) was greater than 100 µM. For the same molecule, the TGI (MOLT-4 leukemia) was greater than 100 µM, the TGI (RXF 393 renal) was greater than 100 µM and the TGI (HL-60(TB) leukemia) was greater than 100 µM. The TGI (EKVX NSCLC) was greater than 100 µM and the TGI (HT29 colon) was greater than 100 µM.

— PubChem BioAssay (NCI)
